The source of these data is the supplement of paper PMC10307832.

The structures appear in SMILES notation.

The first assay concerns NCI-H2347. Kind of assay: relative viability (nuclei count vs DMSO), 5 days (fraction); higher = more cells survive. Conditions: first compound 20 µM. The method, boiled down:
(§1)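 Dosing by pin tool came one day after lung cancer cell lines were seeded in 1536-well plates, using either one drug or a fixed anchor-drug dose plus five library-drug doses (not always all listed) in √10 steps. After 5 days, nuclei were counted on 4× images. Relative viability is treated-well nuclei count divided by vehicle-well nuclei count, and values are medians of duplicate plates.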
Molecule `COCC1(CO)C(=O)C2CCN1CC2` (stereo not drawn) [PRIMA-1MET] + N=C(N)NC(=N)NCCc1ccccc1 [Phenformin] (partner 250 µM) came in with a relative viability of 0.387.

Molecule `COCC1(CO)C(=O)C2CCN1CC2` (stereo not drawn) [PRIMA-1MET] + Nc1nc2[nH]cc(CCc3ccc(C(=O)N[C@@H](CCC(=O)O)C(=O)O)cc3)c2c(=O)[nH]1 [Pemetrexed] (partner 0.2 µM) gave a relative viability of 0.398.

For the molecule `COCC1(CO)C(=O)C2CCN1CC2` (stereo not drawn) [PRIMA-1MET] + Cc1nc(Nc2ncc(C(=O)Nc3c(C)cccc3Cl)s2)cc(N2CCN(CCO)CC2)n1 [Dasatinib] (partner 0.075 µM), the relative viability came out at 0.37.

Another assay concerns LCLC-97TM1. The assay is described as above. Conditions: first compound 0.2 µM. The method, boiled down: as §1
In turn, `COCC1(CO)C(=O)C2CCN1CC2` (stereo not drawn) [PRIMA-1MET] + CCNC(=O)c1noc(-c2cc(C(C)C)c(O)cc2O)c1-c1ccc(CN2CCOCC2)cc1 [Luminespib] (partner 0.01 µM) returned a relative viability of 0.824.

With `COCC1(CO)C(=O)C2CCN1CC2` (stereo not drawn) [PRIMA-1MET] + COc1cccc2cc(-c3nc([C@H]4CC[C@H](C(=O)O)CC4)n4ncnc(N)c34)[nH]c12 [OSI-027] (partner 0.5 µM), the relative viability was determined as 0.306.

Take `COCC1(CO)C(=O)C2CCN1CC2` (stereo not drawn) [PRIMA-1MET] + N=C(N)NC(=N)NCCc1ccccc1 [Phenformin] (partner 250 µM): the relative viability was 0.436.

`COCC1(CO)C(=O)C2CCN1CC2` (stereo not drawn) [PRIMA-1MET] + Nc1nc2[nH]cc(CCc3ccc(C(=O)N[C@@H](CCC(=O)O)C(=O)O)cc3)c2c(=O)[nH]1 [Pemetrexed] (partner 0.2 µM) gave a relative viability of 0.193.

`COCC1(CO)C(=O)C2CCN1CC2` (stereo not drawn) [PRIMA-1MET] + Cc1nc(Nc2ncc(C(=O)Nc3c(C)cccc3Cl)s2)cc(N2CCN(CCO)CC2)n1 [Dasatinib] (partner 0.075 µM): the relative viability came to 0.461.

The same assay, now with this note: first compound 0.6325 µM.
Molecule `COCC1(CO)C(=O)C2CCN1CC2` (stereo not drawn) [PRIMA-1MET] + CCNC(=O)c1noc(-c2cc(C(C)C)c(O)cc2O)c1-c1ccc(CN2CCOCC2)cc1 [Luminespib] (partner 0.01 µM) had a relative viability of 0.531.

As for `COCC1(CO)C(=O)C2CCN1CC2` (stereo not drawn) [PRIMA-1MET] + COc1cccc2cc(-c3nc([C@H]4CC[C@H](C(=O)O)CC4)n4ncnc(N)c34)[nH]c12 [OSI-027] (partner 0.5 µM), the relative viability worked out at 0.554.

The molecule `COCC1(CO)C(=O)C2CCN1CC2` (stereo not drawn) [PRIMA-1MET] + N=C(N)NC(=N)NCCc1ccccc1 [Phenformin] (partner 250 µM) showed a relative viability of 0.437.

In turn, `COCC1(CO)C(=O)C2CCN1CC2` (stereo not drawn) [PRIMA-1MET] + Nc1nc2[nH]cc(CCc3ccc(C(=O)N[C@@H](CCC(=O)O)C(=O)O)cc3)c2c(=O)[nH]1 [Pemetrexed] (partner 0.2 µM) came in with a relative viability of 0.198.

On to `COCC1(CO)C(=O)C2CCN1CC2` (stereo not drawn) [PRIMA-1MET] + Cc1nc(Nc2ncc(C(=O)Nc3c(C)cccc3Cl)s2)cc(N2CCN(CCO)CC2)n1 [Dasatinib] (partner 0.075 µM), for which the relative viability is 1.01.

Staying with this assay, now noted: first compound 2 µM.
For `COCC1(CO)C(=O)C2CCN1CC2` (stereo not drawn) [PRIMA-1MET] + CCNC(=O)c1noc(-c2cc(C(C)C)c(O)cc2O)c1-c1ccc(CN2CCOCC2)cc1 [Luminespib] (partner 0.01 µM), the relative viability was found to be 0.877.

`COCC1(CO)C(=O)C2CCN1CC2` (stereo not drawn) [PRIMA-1MET] + COc1cccc2cc(-c3nc([C@H]4CC[C@H](C(=O)O)CC4)n4ncnc(N)c34)[nH]c12 [OSI-027] (partner 0.5 µM): the relative viability turned out to be 0.582.

Consider `COCC1(CO)C(=O)C2CCN1CC2` (stereo not drawn) [PRIMA-1MET] + N=C(N)NC(=N)NCCc1ccccc1 [Phenformin] (partner 250 µM), for which the relative viability worked out at 0.484.

As to `COCC1(CO)C(=O)C2CCN1CC2` (stereo not drawn) [PRIMA-1MET] + Nc1nc2[nH]cc(CCc3ccc(C(=O)N[C@@H](CCC(=O)O)C(=O)O)cc3)c2c(=O)[nH]1 [Pemetrexed] (partner 0.2 µM), the relative viability was determined as 0.182.

The molecule `COCC1(CO)C(=O)C2CCN1CC2` (stereo not drawn) [PRIMA-1MET] + Cc1nc(Nc2ncc(C(=O)Nc3c(C)cccc3Cl)s2)cc(N2CCN(CCO)CC2)n1 [Dasatinib] (partner 0.075 µM) returned a relative viability of 0.815.

Still in this assay, the particulars now being: first compound 6.325 µM.
`COCC1(CO)C(=O)C2CCN1CC2` (stereo not drawn) [PRIMA-1MET] + CCNC(=O)c1noc(-c2cc(C(C)C)c(O)cc2O)c1-c1ccc(CN2CCOCC2)cc1 [Luminespib] (partner 0.01 µM) yielded a relative viability of 0.841.

In the case of `COCC1(CO)C(=O)C2CCN1CC2` (stereo not drawn) [PRIMA-1MET] + COc1cccc2cc(-c3nc([C@H]4CC[C@H](C(=O)O)CC4)n4ncnc(N)c34)[nH]c12 [OSI-027] (partner 0.5 µM), the relative viability came out at 0.364.

`COCC1(CO)C(=O)C2CCN1CC2` (stereo not drawn) [PRIMA-1MET] + N=C(N)NC(=N)NCCc1ccccc1 [Phenformin] (partner 250 µM): the relative viability worked out at 0.448.

On to `COCC1(CO)C(=O)C2CCN1CC2` (stereo not drawn) [PRIMA-1MET] + Nc1nc2[nH]cc(CCc3ccc(C(=O)N[C@@H](CCC(=O)O)C(=O)O)cc3)c2c(=O)[nH]1 [Pemetrexed] (partner 0.2 µM), for which the relative viability was found to be 0.197.

In the case of `COCC1(CO)C(=O)C2CCN1CC2` (stereo not drawn) [PRIMA-1MET] + Cc1nc(Nc2ncc(C(=O)Nc3c(C)cccc3Cl)s2)cc(N2CCN(CCO)CC2)n1 [Dasatinib] (partner 0.075 µM), the relative viability was 0.855.

The same assay, now with this note: first compound 20 µM.
For the molecule `COCC1(CO)C(=O)C2CCN1CC2` (stereo not drawn) [PRIMA-1MET] + CCNC(=O)c1noc(-c2cc(C(C)C)c(O)cc2O)c1-c1ccc(CN2CCOCC2)cc1 [Luminespib] (partner 0.01 µM), the relative viability came to 0.674.

Consider `COCC1(CO)C(=O)C2CCN1CC2` (stereo not drawn) [PRIMA-1MET] + COc1cccc2cc(-c3nc([C@H]4CC[C@H](C(=O)O)CC4)n4ncnc(N)c34)[nH]c12 [OSI-027] (partner 0.5 µM), for which the relative viability came to 0.438.

In turn, `COCC1(CO)C(=O)C2CCN1CC2` (stereo not drawn) [PRIMA-1MET] + N=C(N)NC(=N)NCCc1ccccc1 [Phenformin] (partner 250 µM) registered a relative viability of 0.347.

The molecule `COCC1(CO)C(=O)C2CCN1CC2` (stereo not drawn) [PRIMA-1MET] + Nc1nc2[nH]cc(CCc3ccc(C(=O)N[C@@H](CCC(=O)O)C(=O)O)cc3)c2c(=O)[nH]1 [Pemetrexed] (partner 0.2 µM) gave a relative viability of 0.21.

In turn, `COCC1(CO)C(=O)C2CCN1CC2` (stereo not drawn) [PRIMA-1MET] + Cc1nc(Nc2ncc(C(=O)Nc3c(C)cccc3Cl)s2)cc(N2CCN(CCO)CC2)n1 [Dasatinib] (partner 0.075 µM) gave a relative viability of 0.833.

A further assay has as its system PC-14. The assay is described as above. Conditions: first compound 0.2 µM. The method, boiled down: as §1
For the molecule `COCC1(CO)C(=O)C2CCN1CC2` (stereo not drawn) [PRIMA-1MET] + CCNC(=O)c1noc(-c2cc(C(C)C)c(O)cc2O)c1-c1ccc(CN2CCOCC2)cc1 [Luminespib] (partner 0.01 µM), the relative viability stood at 0.137.

On to `COCC1(CO)C(=O)C2CCN1CC2` (stereo not drawn) [PRIMA-1MET] + COc1cccc2cc(-c3nc([C@H]4CC[C@H](C(=O)O)CC4)n4ncnc(N)c34)[nH]c12 [OSI-027] (partner 0.5 µM), for which the relative viability is 1.01.

Molecule `COCC1(CO)C(=O)C2CCN1CC2` (stereo not drawn) [PRIMA-1MET] + N=C(N)NC(=N)NCCc1ccccc1 [Phenformin] (partner 250 µM) yielded a relative viability of 0.621.

Regarding `COCC1(CO)C(=O)C2CCN1CC2` (stereo not drawn) [PRIMA-1MET] + Nc1nc2[nH]cc(CCc3ccc(C(=O)N[C@@H](CCC(=O)O)C(=O)O)cc3)c2c(=O)[nH]1 [Pemetrexed] (partner 0.2 µM), the relative viability stood at 0.124.

`COCC1(CO)C(=O)C2CCN1CC2` (stereo not drawn) [PRIMA-1MET] + Cc1nc(Nc2ncc(C(=O)Nc3c(C)cccc3Cl)s2)cc(N2CCN(CCO)CC2)n1 [Dasatinib] (partner 0.075 µM) registered a relative viability of 0.249.
